Data: patent US20230118142A1, “AGENTS FOR USE IN THE TREATMENT OF TISSUE DAMAGE” (UCL BUSINESS LTD, priority 2020, published 2023)
pIC50: −log10 of the molar value.

Columns and labels:
CRP [1] = molecular target: T1, CRP (Homo sapiens, UniProt P02741); test: In vivo clearance of CRP/ligand complexes generated in vivo in mice; set-up: The final concentrations were 0.73 μM native pentameric CRP; from tissue
T1 sequence (P02741 19-224): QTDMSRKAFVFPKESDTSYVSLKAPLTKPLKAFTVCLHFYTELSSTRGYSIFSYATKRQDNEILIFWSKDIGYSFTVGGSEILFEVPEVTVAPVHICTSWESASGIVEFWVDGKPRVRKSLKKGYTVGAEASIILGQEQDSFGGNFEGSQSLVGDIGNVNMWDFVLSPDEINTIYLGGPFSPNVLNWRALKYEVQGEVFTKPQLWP
Protocol: (i) Two groups of 8 wild-type C57BL/6 mice (male; 23-27 weeks old) were used: group 1 (control) and group 2 (treated).
(ii) Both groups of animals were given 200 μl of human CRP (5 mg/ml in azide-free TC buffer) subcutaneously on day 1.
(iii) On day 2 (+18 h), control animals were given a 200 μl intravenous bolus of TC buffer. Treated animals were given a 200 μl iv bolus of ligand (prepared at 5 mg/ml in TC buffer).
(iv) One timed blood sample and a terminal blood sample were collected from each mouse into heparinised tubes and weighed. This generated data in quadruplicate at 4 time points, normally 30, 60, 120 and 360 minutes.
(v) ^125I radiolabel was measured (Perkin Elmer Wizard; protocol #1) in whole blood to quantify total CRP. In some cases, electroimmunoassay as above was also used to determine total CRP concentration.
(vi) Plasma was prepared and free CRP determined by Roche immunoassay.
Subcutaneous injection of human CRP provided circulating CRP concentrations with which to test for effects of our ligands in vivo. (Table 4).

CRP [2] = molecular target: T1, CRP; test: Size exclusion chromatography of CRP/ligand cross linking; format: binding; set-up: The final concentrations were 0.73 μM native pentameric CRP; from tissue
Protocol: (i) Ligands were diluted to 0.5 mM in TC buffer from up to 10 mM stocks. Serial dilutions were prepared as required. […]
(iii) The complex was chromatographed on a Superdex200 column (10/300 GL; 24 ml bed volume), connected to the ÅKTA100 Explorer HPLC system, and equilibrated and eluted in TC buffer at 0.5 ml/min. Eluates were monitored at 280 nm and fractions (0.5 ml) collected as required.
Size exclusion chromatography on a Superdex 200 column equilibrated and eluted with TC buffer pH 8.0, and calibrated with standard globular marker proteins and with human CRP, the native CRP pentamer (Mr 115 kDa) eluted at 13.9 ml (range 13.7-14.0 ml, n=10).

CRP [3] = molecular target: T1, CRP; test: Rat acute myocardial infarction model (coronary artery ligation) with human CRP; format: in vivo; set-up: The final concentrations were 0.73 μM native pentameric CRP; from tissue; details: rats; ischaemia reperfusion and terminal coronary artery ligation; unpublished observations
Source text: Human CRP and activated rat complement were deposited in and around the infarct and the exacerbation of tissue damage was absolutely complement dependent. Similar observations were made in the middle cerebral artery occlusion model of stroke in rats (3).
The design of the first small molecule inhibitor of CRP binding for use in vivo, bis(phosphocholine)hexane (BPC6), enabled conclusive confirmation of the pathogenic role of human CRP in exacerbating tissue damage after ischaemic infarction (4).

CRP [4] = molecular target: T1, CRP; test: Roche immunoturbidimetric assay: pure CRP; format: binding; set-up: The final concentrations were 0.73 μM native pentameric CRP; from tissue
Protocol: (i) Human CRP at ˜90 μg/ml (3.9 μM monomer or 0.78 μM pentamer) in TC buffer was prepared from a stock solution; a 75 μl aliquot was used in the assay.
(ii) Compounds were prepared from stock solutions at up to 10 mM in TC (labelled S1). They were serially diluted with TC buffer (100 μl ligand+200 μl TC) to provide up to 9 dilutions, S2-S10. A TC buffer control (S0) was included in each assay.
(iii) A 15 μl volume of each ligand solution was incubated with 75 μl of CRP for 1 h at 37° C. The final concentrations were CRP pentamer=0.73 μM, ligands S1-S10=625-0.03 μM, corresponding to ligand:CRP pentamer ratios of 853-0.04.
(iv) CRP concentrations were measured by the Roche microparticle-enhanced immunoturbidimetric assay (10) on the COBAS MIRA autoanalyser, and results expressed as a percentage of the CRP control.
(v) Data were plotted using Sigmaplot (V14) using the 4 parameter logistic curve y=min+(max−min)/(1+(x/EC50)^−Hill slope) to calculate EC50.
(vii) All compounds were assayed in comparison with a highly purified preparation of BPC8, that was prepared by Carbogen AMCIS AG, dissolved in sterile water and diluted into TC buffer as required.
The immunoturbidimetric CRP assay on the Roche COBAS MIRA Plus autoanalyser, utilises two different sized microparticles that are covalently coupled with two different monoclonal antibodies, which recognise different CRP epitopes. The assay was developed by Roche for clinical measurement of CRP serum and plasma with high sensitivity and a very wide dynamic range. Serendipitously, one of the two antibodies binds to an epitope present on the ligand binding B-face of CRP. Thus, when the binding pocket is occupied by ligand and, especially, when the B-face is occluded by the B-face to B-face interaction of two native CRP pentamers produced by cross linking via our unique bivalent ligands, the assay fails to detect the CRP. In contrast, the CRP is all detected and assayed normally by other assays that disrupt the crosslinking and/or use antibodies which recognise different, non-occluded, epitopes. Inhibition of CRP recognition in the Roche assay is thus a convenient tool to monitor the efficacy and potency of complex formation between our unique ligands and CRP.

[5] = In vivo clearance of ligand; details: male, C57BL/6, mouse, serum, 0.5 mg; mice, intravenous; read-out: half-life (t1/2) of ligand in mouse circulation
Protocol: (i) Ligand (0.5 mg/animal) dissolved in PBS or saline (200 μl) was injected intravenously into the tail vein of six male; 23-27 week old wild-type C57BL/6 mice. Up to two blood samples plus a terminal sample per mouse were collected at each time point up to 180 minutes.
(ii) Serum was prepared and ˜200 ng of internal standard (either ^2H4-BPC6 or BPC9) added. Serum proteins were precipitated with 4 volumes of either ice cold methanol or acetonitrile. The supernatant was dried under vacuum and re-dissolved in 0.1% v/v aqueous formic acid. (iii) Samples were chromatographed on a Phenomenex Aqua column using a gradient of 0.1% v/v formic acid-60% v/v acetonitrile in formic acid, and the eluate passed into the positive ion source of a Quattro II triple quadrupole mass spectrometer. The MRM transitions used were m/z 449.3→390.2 and 453.→394.2 (BPC6) and m/z 477.3→418.3, […] (BPC8).
(iv) Ligand concentrations were measured against an extracted standard curve and were plotted using Sigmaplot (v14) and fitted to a 2-parameter exponential decay.

CRP [6] = molecular target: T1, CRP; test: Immobilised phosphocholine plate assay (125I-CRP binding); set-up: The final concentrations were 0.73 μM native pentameric CRP; from tissue; details: read-out: IC50 for inhibition of 125I-CRP binding to immobilised phosphocholine
Protocol: (i) Phosphocholine was immobilised on Greiner NHS-activated microtitre plates by incubation with 4-aminophenyl-1-phosphocholine. Remaining active sites were blocked by incubation with 4% w/v BSA in TC buffer (TCB).
(ii) Human CRP at 1 μg/ml in TC buffer was spiked with ^125I-labelled CRP to provide 10^6 cpm/ml.
(iii) Compounds were prepared from up to 10 mM stock solutions by dilution in TC buffer to 0.5 mM (labelled S1). Serial dilutions were prepared by diluting 100 μl ligand solution with 200 μl TC buffer (S2-S10). A ligand-free control was also used (SO, TC only).
(iv) A 100 μl volume of CRP solution was incubated with 10 μl of each compound (S1-S10, SO) for 1 h at room temperature without stirring, to provide final ligand concentrations across the range 45.5 μM-6.9 nM with a ligand:CRP monomer molar ratio of 1151-0.06. In some cases, single fixed ligand concentrations were also assayed in comparison with PC.
(v) A 100 μl volume of each CRP-ligand mixture was added to the plate wells and incubated for 2 h at room temperature. Solutions were then discarded and the plates washed with TCB buffer. Bound radioactivity was measured (1 min counts) using a gamma counter (Perkin Elmer Wizard 2470).
(vi) Data were plotted with Sigmaplot v14 software using the 4-parameter logistic curve y=min+(max−min)/(1+(x/EC50)^−Hill slope) to calculate IC50.

CRP [7] = molecular target: T1, CRP; set-up: The final concentrations were 0.73 μM native pentameric CRP; from tissue; details: rats undergoing coronary artery ligation and receiving human CRP; cited from earlier work

Time by which Roche value was the same as in control mice (CRP [1]; i.v. bolus 1 mg 18 h after s.c. CRP) [h]	Stable to rechromatography (CRP [2]; CRP/ligand complex re-chromatographed in absence of free ligand)	CRP elution volume from Superdex 200 after pre-incubation with ligand (CRP [2]; native CRP pentamer elutes at 13.9 ml) [mL]	Protective effect against human CRP pathogenicity (CRP [3])	excess of ligand over CRP pentamer causing 50% reduction of immunoreactivity (CRP [4]) [fold]	half-life [5] [min]	pIC50 (CRP [6])	IC50 (CRP [4]; pure CRP in TC buffer, read-out: IC50 (μM), SD, inhibition of Roche CRP immunoreactivity) [µM]	Compound	Effect on detection of circulating CRP in the Roche assay (CRP [1]; i.v. bolus 18 h after s.c. CRP (1 mg))	Effect on increased tissue damage caused by human CRP (CRP [7])
≤ 3	No	12.6	same protective effect	2.5	15.4	5.66	–	C[N+](C)(C)CCOP(=O)(O)OCCCCCCCCOP(=O)(O)OCC[N+](C)(C)C [BPC8, 1,8-bis(phosphocholine)-octane, reference compound]	immediately blocked detection of circulating CRP	–
–	–	–	–	–	16.1	–	4.7	C[N+](C)(C)CCOP(=O)([O-])OCCCCCCOP(=O)([O-])OCC[N+](C)(C)C [BPC6, bis(phosphocholine)hexane]	–	completely abrogated the increased damage
